# Measurements reported in EP0182135A2, “Novel bis-(substituted amino) anthraquinones” (AMERICAN CYANAMID COMPANY, priority 1984, dated 1986).
# What was measured:
# melanotic melanoma B16 = assay: Melanotic Melanoma B16 Test; format: in vivo, C57BC/6 mice
# Method: The animals used were C57BC/6 mice, all of the same sex, weighing a minimum of 17 g and all within a 3 g weight range. There were normally 10 animals per test group. A 1.0 g portion of melanotic melanoma B16 tumor was homogenized in 10 ml of cold balanced salt solution and a 0.5 ml aliquot of the homogenate was implanted intraperitoneally into each of the test mice. The test compounds were administered intraperitoneally on days one through nine (relative to tumor inoculation) at various doses. The animals were weighed and survivors recorded on a regular basis for 60 days. The median survival time and the ratio of survival time for treated (T)/control (C) animals were calculated. The positive control compound was 1,4-dihydroxy-5,8-bis[[2-(2-hydroxyethylamino)-ethyl]amino]anthraquinone, dihydrochloride (U.S. Patent 4,197,249) given at the indicated doses by injection.
# [1] = system: lymphocytic leukemia P388; assay: Lymphocytic Leukemia P388 Test; format: in vivo, DBA/2 mice
# Method: Lymphocytic Leukemia P388 Test
# The animals used were DBA/2 mice all of one sex, weighing a minimum of 17 g and all within a 3 g weight range. There were 5 or 6 animals per test group. The tumor transplant was by intraperitoneal injection of 0.1 ml of dilute ascitic fluid containing 10^6 cells of lymphocytic leukemia P388. The test compounds were administered intraperitoneally on days 1, 5 and 9 (relative to tumor inoculation) at various doses. The animals were weighed and survivors were recorded on a regular basis for 30 days. The median survival time and the ratio of survival time for treated (T)/control (C) animals were calculated. The positive control compound was 1,4-dihydroxy-5,8-bis--[ [2-(2-hydroxyethylamino)ethyl ]amino]anthraquinone, dihydrochloride (U.S. Patent 4,197,249) given at the indicated doses by injection.
# [2] = Dose 0.8 mg/kg intraperitoneally on days one through nine
# [3] = Dose 3 mg/kg intraperitoneally on days one through nine
# [4] = Dose 12 mg/kg intraperitoneally on days one through nine
# [5] = Dose 50 mg/kg intraperitoneally on days one through nine
# [6] = Dose 0.8 mg/kg intraperitoneally on days 1, 5 and 9
# [7] = Dose 3 mg/kg intraperitoneally on days 1, 5 and 9
# [8] = Dose 12 mg/kg intraperitoneally on days 1, 5 and 9
# [9] = Dose 50 mg/kg intraperitoneally on days 1, 5 and 9
# [10] = Dose 200 mg/kg intraperitoneally on days 1, 5 and 9
# [11] = Dose 1.5 mg/kg intraperitoneally on days one through nine
# [12] = Dose 6 mg/kg intraperitoneally on days one through nine
# [13] = Dose 25 mg/kg intraperitoneally on days one through nine
# [14] = Dose 100 mg/kg intraperitoneally on days one through nine
# [15] = Dose 0.2 mg/kg intraperitoneally on days 1, 5 and 9
compound,measurement,setting,value
"CC(=O)OCCN(CCNc1ccc(NCCN(CCOC(C)=O)C(C)=O)c2c1C(=O)c1c(O)ccc(O)c1C2=O)C(C)=O [N,N'-[5,8-Dihydroxyl,4-anthraquinonylene-bis(imino-ethylene)]bis[N-2-hydroxyethylacetamide-2,2'diacetate]]",Median Survival,melanotic melanoma B16; [2],21.5 days
same,T/C x 100 (%),melanotic melanoma B16; [2],106%
same,Median Survival,melanotic melanoma B16; [3],21.5 days
same,T/C x 100 (%),melanotic melanoma B16; [3],106%
same,Median Survival,melanotic melanoma B16; [4],20.5 days
same,T/C x 100 (%),melanotic melanoma B16; [4],101%
same,Median Survival,melanotic melanoma B16; [5],21.5 days
same,T/C x 100 (%),melanotic melanoma B16; [5],106%
same,Median Survival,[1]; [6],11 days
same,T/C x 100 (%),[1]; [6],116%
same,Median Survival,[1]; [7],10 days
same,T/C x 100 (%),[1]; [7],105%
same,Median Survival,[1]; [8],14 days
same,T/C x 100 (%),[1]; [8],147%
same,Median Survival,[1]; [9],16 days
same,T/C x 100 (%),[1]; [9],168%
same,Median Survival,[1]; [10],17 days
same,T/C x 100 (%),[1]; [10],179%
"CCOC(=O)NCCNc1ccc(NCCNC(=O)OCC)c2c1C(=O)c1c(O)ccc(O)c1C2=O [[(9,10-Dihydro-5,8-dihydroxy-9,10-dioxo-1,4 anthracenediyl)bis(imino-2,1-ethanediyl)]bis-[carbamic acid]diethyl ester]",Median Survival,melanotic melanoma B16; [11],29.5 days
same,T/C x 100 (%),melanotic melanoma B16; [11],156%
same,Median Survival,melanotic melanoma B16; [12],39.5 days
same,T/C x 100 (%),melanotic melanoma B16; [12],209%
same,Median Survival,melanotic melanoma B16; [13],>60 days
same,T/C x 100 (%),melanotic melanoma B16; [13],>317%
same,Median Survival,melanotic melanoma B16; [14],38.5 days
same,T/C x 100 (%),melanotic melanoma B16; [14],204%
same,Median Survival,[1]; [15],11 days
same,T/C x 100 (%),[1]; [15],110%
same,Median Survival,[1]; [6],14 days
same,T/C x 100 (%),[1]; [6],140%
same,Median Survival,[1]; [7],17 days
same,T/C x 100 (%),[1]; [7],170%
same,Median Survival,[1]; [8],21 days
same,T/C x 100 (%),[1]; [8],210%
same,Median Survival,[1]; [9],21.5 days
same,T/C x 100 (%),[1]; [9],215%
